# Experimental data from the supplement of paper PMC10307832.
# Experiments:
# Experiment in all cases: relative viability (nuclei count vs DMSO), 5 days (fraction); higher = more cells survive
# [1] = compound: CCN1C(=O)C2=CC(=C(N=C2N(C1=O)C3CC3)N)C(=O)N + NC(=O)Nc1cc(-c2cccc(F)c2)sc1C(=O)N[C@H]1CCCNC1 [AZD7762] (partner 0.2 µM)
# Method in brief: (§1)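 For relative viability, nuclei counts in treated wells were divided by those in vehicle wells. Lung cancer cell lines had been pin-tool dosed in 1536-well plates the day after seeding and cultured for 5 days, then fixed and stained in one step (final 0.05% Triton X-100, 1% formaldehyde, 1 ug/ml Hoechst) and imaged at 4×. Doses were one drug alone or a fixed anchor-drug dose plus five library-drug doses (not always all listed) in √10 steps, and values are duplicate-plate medians.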
# [2] = compound: CCN1C(=O)C2=CC(=C(N=C2N(C1=O)C3CC3)N)C(=O)N + COc1cccc2cc(-c3nc([C@H]4CC[C@H](C(=O)O)CC4)n4ncnc(N)c34)[nH]c12 [OSI-027] (partner 0.5 µM)
# Method in brief: as §1
# [3] = compound: CCN1C(=O)C2=CC(=C(N=C2N(C1=O)C3CC3)N)C(=O)N + CCNC(=O)c1noc(-c2cc(C(C)C)c(O)cc2O)c1-c1ccc(CN2CCOCC2)cc1 [Luminespib] (partner 0.01 µM)
# Method in brief: as §1
# [4] = compound: CCN1C(=O)C2=CC(=C(N=C2N(C1=O)C3CC3)N)C(=O)N + CC(=O)Nc1cccc(-n2c(=O)n(C3CC3)c(=O)c3c(Nc4ccc(I)cc4F)n(C)c(=O)c(C)c32)c1 [Trametinib] (partner 0.02 µM)
# Method in brief: as §1
# [5] = compound: CCN1C(=O)C2=CC(=C(N=C2N(C1=O)C3CC3)N)C(=O)N + O=C(CCCCCCC(=O)Nc1ccccc1)NO [Vorinostat] (partner 1 µM)
# Method in brief: as §1
Cell Line,relative viability ([1]; first compound 0.253 µM),relative viability ([1]; first compound 0.8 µM),relative viability ([1]; first compound 2.53 µM),relative viability ([1]; first compound 8 µM),relative viability ([2]; first compound 0.253 µM),relative viability ([2]; first compound 0.8 µM),relative viability ([2]; first compound 2.53 µM),relative viability ([2]; first compound 8 µM),relative viability ([3]; first compound 0.253 µM),relative viability ([3]; first compound 0.8 µM),relative viability ([3]; first compound 2.53 µM),relative viability ([3]; first compound 8 µM),relative viability ([4]; first compound 0.253 µM),relative viability ([4]; first compound 0.8 µM),relative viability ([4]; first compound 2.53 µM),relative viability ([4]; first compound 8 µM),relative viability ([5]; first compound 0.253 µM),relative viability ([5]; first compound 0.8 µM),relative viability ([5]; first compound 2.53 µM),relative viability ([5]; first compound 8 µM)
LOU-NH91,0.786,0.73,0.725,0.749,0.637,0.66,0.766,0.692,0.283,0.452,0.379,0.349,0.791,0.76,0.772,0.772,0.863,0.848,0.948,0.903
LU99A,0.356,0.377,0.304,0.348,0.34,0.294,0.284,0.288,0.249,0.259,0.285,0.234,0.504,0.545,0.56,0.549,0.471,0.493,0.471,0.469
LXF-289,1.12,1.17,1.08,1.07,0.827,0.864,0.815,0.793,0.693,0.73,0.661,0.784,0.636,0.658,0.661,0.665,0.798,0.744,0.825,0.787
NCI-H23,0.272,0.208,0.284,0.2,0.494,0.64,0.587,0.583,0.195,0.203,0.228,0.214,0.385,0.416,0.365,0.391,0.548,0.715,0.58,0.635
NCI-H322M,0.611,0.548,0.551,0.599,0.498,0.498,0.512,0.549,0.724,0.934,0.886,1,0.522,0.457,0.469,0.586,1.04,0.758,1.04,0.931
NCI-H358,0.535,0.536,0.552,0.564,0.85,0.818,0.779,0.814,0.2,0.377,0.423,0.379,0.121,0.134,0.144,0.138,0.788,0.625,0.628,0.863
NCI-H441,0.892,1.29,1.2,1.1,0.686,0.746,0.703,0.583,0.287,0.34,0.419,0.35,0.508,0.441,0.516,0.532,0.83,0.851,0.994,0.906
NCI-H460,0.609,0.572,0.57,0.586,0.586,0.599,0.577,0.547,0.0334,0.0279,0.0363,0.037,0.226,0.13,0.13,0.13,0.788,0.74,0.625,0.688
NCI-H522,0.726,0.735,0.952,0.922,0.715,0.623,0.647,0.722,1.19,0.977,1.12,1.05,0.712,0.797,0.792,0.709,0.924,0.81,0.924,1.01
NCI-H596,1.12,0.998,1.26,1.24,0.735,0.7,0.843,0.679,1.01,0.884,0.941,1.14,0.673,0.742,0.787,0.907,0.582,0.626,0.614,0.571
NCI-H647,0.537,–,0.547,0.581,0.598,0.724,0.647,0.591,0.16,0.129,0.18,0.14,0.521,0.442,0.418,0.389,0.448,0.477,0.557,0.862
NCI-H650,1.14,0.781,0.999,1.3,0.527,0.46,0.516,0.457,0.66,0.821,0.712,0.78,0.994,0.929,0.905,1.04,0.565,0.313,0.408,0.421
NCI-H727,0.61,0.534,0.726,0.577,0.59,0.528,0.654,0.723,0.238,0.309,0.394,0.321,0.39,0.436,0.422,0.386,1.27,1.11,1.26,1.07
NCI-H838,0.908,0.951,0.961,0.908,0.404,0.406,0.41,0.374,0.262,0.334,0.214,0.336,0.55,0.573,0.511,0.474,0.756,0.694,0.692,0.752
NCI-H1355,0.798,0.821,0.756,0.691,0.5,0.464,0.455,0.376,0.652,0.887,0.761,0.753,0.429,0.387,0.383,0.438,0.626,0.662,0.636,0.674
NCI-H1395,0.42,0.388,0.428,0.397,0.62,0.587,0.697,0.593,0.711,0.599,0.747,0.619,1.13,0.94,1.04,1.07,0.716,0.549,0.912,0.674
NCI-H1437,1.03,1.09,1.17,1.14,0.939,0.867,0.919,0.894,1.1,1.06,1.1,1.16,0.609,0.468,0.527,0.406,0.845,0.804,0.756,0.808
NCI-H1651,0.463,0.434,0.442,0.399,0.643,0.691,0.734,0.606,0.856,0.813,0.874,0.885,0.784,0.835,0.778,0.819,0.571,0.493,0.55,0.462
NCI-H1666,0.888,0.824,0.909,0.84,–,0.838,0.863,0.834,–,1.02,1.07,1.05,0.906,0.778,0.83,0.815,1.05,0.99,1,1.09
NCI-H1734,0.514,0.543,0.51,0.566,0.734,0.554,0.531,0.596,0.67,0.215,0.191,0.233,0.742,0.593,0.609,0.74,0.744,0.762,0.811,0.784
NCI-H1755,0.522,0.496,0.408,0.533,0.744,0.749,0.703,0.72,0.455,0.412,0.528,0.51,0.771,0.762,0.746,0.716,0.743,0.722,0.76,0.719
NCI-H1793,0.409,0.408,0.649,0.501,–,0.294,0.212,0.239,–,0.183,0.177,0.15,0.428,0.387,0.433,0.445,0.665,0.747,0.797,0.805
NCI-H1915,0.722,0.7,0.712,0.594,0.636,0.638,0.6,0.679,0.852,0.775,0.873,0.892,0.297,0.294,0.305,0.337,0.49,0.546,0.493,0.436
NCI-H1944,0.541,0.479,0.528,0.487,0.4,0.399,0.473,0.378,0.795,0.711,0.618,0.723,0.451,0.445,0.353,0.427,0.641,0.51,0.51,0.553
NCI-H1975,0.758,0.622,0.83,0.7,0.809,0.697,0.604,0.536,0.167,0.283,0.222,0.276,0.343,0.335,0.335,0.336,0.733,0.772,0.697,0.757
NCI-H1993,0.74,0.805,0.847,0.771,0.578,0.558,0.523,0.534,1.78,0.877,0.612,0.832,0.587,0.576,0.511,0.491,0.0267,0.735,0.76,0.853
NCI-H2085,0.989,0.915,0.921,1.04,0.728,0.691,0.738,0.684,0.378,0.408,0.355,0.493,0.588,0.538,0.52,0.428,0.767,0.764,0.747,0.782
